# Reference: ChEMBL document CHEMBL5257063, “Dendrillic Acids A and B: Nitrogenous, Rearranged Spongian Nor-Diterpenes from a Dendrilla sp. Marine Sponge” (J Nat Prod, 2023)
# Assays:
# Bacillus subtilis = assay: Antibacterial activity against Bacillus subtilis ATCC 6633 measured after 48 hrs by resazurin reagent based assay; assay type: functional
# Staphylococcus aureus = assay: Antibacterial activity against Staphylococcus aureus ATCC 25923 measured after 48 hrs by resazurin reagent based assay; assay type: functional
# [1] = Cytotoxicity against human NFF cells incubated for 96 hrs by resazurin dye based assay; assay type: toxicity, cell-based; settings: read-out: MIC
# [2] = Cytotoxicity against mouse NS-1 cells incubated for 96 hrs by resazurin dye based assay; assay type: functional
# Tritrichomonas foetus = assay: Anti-protozoal activity against Tritrichomonas foetus KV-1 measured after 72 hrs under anaerobic conditions; assay type: functional
# Saccharomyces cerevisiae = assay: Antifungal activity against Saccharomyces cerevisiae ATCC 9763 measured after 48 hrs by bromocresol green reagent based assay; assay type: functional
# Candida albicans = assay: Antifungal activity against Candida albicans ATCC 10231 measured after 48 hrs by bromocresol green reagent based assay; assay type: functional
# Giardia intestinalis = assay: Antiparasitic activity against Giardia duodenalis WB-1B 713 assessed as parasite growth inhibition measured after 96 hrs under anaerobic conditions; assay type: functional
MIC (Bacillus subtilis) [mg/L],MIC (Staphylococcus aureus) [mg/L],MIC (Tritrichomonas foetus) [mg/L],MIC (Saccharomyces cerevisiae) [mg/L],MIC (Candida albicans) [mg/L],MIC (Giardia intestinalis) [mg/L],Compound,MCC at 96 h [1] [µg/mL],MIC [2] [mg/L]
6.3,12.5,,,,,CN(C)[C@@H]1C(O)=C(C(N)=O)C(=O)[C@@]2(O)C(O)=C3C(=O)c4c(O)cccc4[C@@](C)(O)[C@H]3C[C@@H]12 [TETRACYCLINE],,
,,,,,,CSC[S@@+]([O-])CC(CO)NC(=O)/C=C/c1c(C)[nH]c(=O)[nH]c1=O (some centres undefined) [SPARSOMYCIN],0.6,0.6
> 100,> 100,> 100,> 200,> 200,100,C[C@@H]1c2c([C@@]3(C)CCCC(C)(C)C3)ccc(C(=O)O)c2C(=O)N1CC(=O)O,> 100,> 100
> 100,> 100,> 100,> 200,> 200,50,C[C@H]1c2c([C@@]3(C)CCCC(C)(C)C3)ccc(C(=O)O)c2C(=O)N1CC(=O)O,> 100,> 100
,,0.2,,,0.3,Cc1ncc([N+](=O)[O-])n1CCO [METRONIDAZOLE],,

Compound,MIC (Bacillus subtilis) [mg/L],MIC (Staphylococcus aureus) [mg/L],MIC (Tritrichomonas foetus) [mg/L],MIC (Saccharomyces cerevisiae) [mg/L],MIC (Candida albicans) [mg/L],MIC (Giardia intestinalis) [mg/L],MCC at 96 h [1] [µg/mL],MIC [2] [mg/L]
CN(CC[C@H](N)CC(=O)N[C@H]1C=C[C@H](n2ccc(N)nc2=O)O[C@@H]1C(=O)O)C(=N)N.Cl,,,,3.1,> 200,,,
